Data on one sequence can be found in patent US20110166066A1, “CATESTATIN (CST) AND ITS VARIANTS FOR TREATMENT OF CARDIOVASCULAR AND METABOLIC DISORDERS” (priority 2008, published 2011).

No end group written: not given here.

The test system of test [1] is WT and Chga knockout (KO) mice. Briefly: Response to PE or SNP and baroreflex sensitivity in unconscious mice. The format is in vivo. The following applies: KO mice, CST 40 μg/g bw iv. The procedure: Unconscious mice. Surgical procedures for hemodynamic measurements: Hemodynamic evaluation in both WT and KO mice was performed under general anesthesia [ketamine (100 mg/kg) and xylazine (2.5 mg/kg)] while connected to a ventilator. LV pressure was monitored by Millar micromanometer catheter of size 1.4 French (0.46 mm; Millar Instruments, Houston, Tex.); it was inserted into the LV where phasic and mean pressure was continuously monitored (Gould, Cleveland, Ohio). A venous catheter (MicroRenathane tube MRE-033; Braintree Laboratories, Braintree, Mass.) is implanted on right femoral vein for injection of peptide and other reagents. All physiologic signals were acquired by WINDAQ (Dataq Instruments, Akron, Ohio) and analyzed by BP-Analysis software (developed for own laboratory).
Assessment of baroreflex sensitivity (BRS): BRS (in milliseconds per mmHg) was assessed by both high-pressure [phenylephrine (PE) bolus] and low-pressure [sodium nitroprusside (SNP) bolus] stimuli in unconscious mice. Although conscious animals provide optimal physiological data, a host of undesirable signals are triggered by physical activities, and sleep cycle alterations in behavioral state. Therefore, we have chosen to conduct the experiments in unconscious mice to avoid some of the pitfalls encountered in awake animals. The absolute changes of HR in response to changes in SBP induced by PE or SNP were subjected to linear regression analysis to determine BRS. To test the effect of CST on BRS in KO mice, CST was injected (40 μg/g bw iv) 30 min before the injection of PE or SNP through the catheter implanted into the femoral vein.
BRS to high-pressure stimulus. High pressure BRS was evaluated by recording diminution of HR in response to PE-induced hypertension. Changes in SBP and HR were recorded continuously for 0.5 min after a bolus injection of PE (0.005 μg/g bw iv). This dose was selected from a preliminary dose-response study (0.001-0.05 μg/g bw iv).
BRS to low-pressure stimulus. This was evaluated by recording increments in HR in response to SNP-induced fall in BP. Changes in SBP and HR were recorded continuously for 0.5 min after a bolus injection of SNP (0.05 μg/g bw iv). This dose was selected from a preliminary dose-response study (0.01-0.1 μg/g bw iv).

In test [2] the test system is WT, CgA-KO and HFD fed insulin resistant mice. Briefly: Blood glucose / glucose tolerance tests. The format is in vivo. From the text:
(§1) Adult WT (C57BL/6) and CgA-KO mice with mixed genetic background (129svJ×C57BL/6) were used in this study. Both WT and KO mice were generated from the original founder carrying mixed genotype (50% 129svJ: 50% C57BL/6) and were maintained by brother/sister mating. Hypertensive CGA-KO mice will serve as a model for hyper insulin sensitivity. WT mice were fed 60% high fat diet (HFD) for 20 weeks. Body weight and blood glucose levels were monitored and glucose and insulin tolerance testa were performed to determine status of insulin resistance. After 20 weeks of HFD feeding mice were injected IP with catestatin (40 μg/gm body weight) twice daily for 7 days. On the 8th day, 12 hours fasted mice were subjected to glucose tolerance tests to determine their insulin sensitivity. Tissues of WT and CgA-KO mice are analyzed AMPK and eNOS signalling by immunoblotting.

For a further test, the system named is pAMPK. Briefly: AMPK signalling by immunoblotting of mouse tissues. The following applies: CgA-KO mice. The format is in vivo.
From the text: as §1

A further test relates to CgA null mice. Particulars: pre-treatment; cited from earlier work.

Regarding “SSMKLSFRARAYGFRGPGPQL [WT-CST, catestatin]”, in test [1], the Dampened baroreflex slope result is given as “restored”. In test [2] (HFD fed insulin resistant mice, 40 μg/gm IP twice daily 7 days), the “Peak blood glucose level” value is reported as “reduced”. The Blood glucose level result in test [2] (WT and CgA-KO mice) is “raised”. Further, the “Reduction of blood glucose level (glucose tolerance tests)” value in test [2] (insulin-resistant HFD mice) was 15-20%. The pAMPK signal entry with pAMPK is recorded as “reduced”. Also, in the test with CgA null mice, the “High blood pressure in CgA null mice” value is on record as “lowers the high blood pressure in CgA null mice to normal levels”.
